The source made the active and inactive calls.
How the values were obtained:
[1] = target: T1, Protein RecA (Mycobacterium tuberculosis, UniProt P9WHJ3); experiment: Fluorescence Cell-Free Homogeneous Dose Retest to Identify Inhibitors of RecA-Intein Splicing Activity. [Related pubchem assays (depositor defined):AID2097, AID2223, AID489010, AID492950]; format: functional
T1 sequence (P9WHJ3 whole entry): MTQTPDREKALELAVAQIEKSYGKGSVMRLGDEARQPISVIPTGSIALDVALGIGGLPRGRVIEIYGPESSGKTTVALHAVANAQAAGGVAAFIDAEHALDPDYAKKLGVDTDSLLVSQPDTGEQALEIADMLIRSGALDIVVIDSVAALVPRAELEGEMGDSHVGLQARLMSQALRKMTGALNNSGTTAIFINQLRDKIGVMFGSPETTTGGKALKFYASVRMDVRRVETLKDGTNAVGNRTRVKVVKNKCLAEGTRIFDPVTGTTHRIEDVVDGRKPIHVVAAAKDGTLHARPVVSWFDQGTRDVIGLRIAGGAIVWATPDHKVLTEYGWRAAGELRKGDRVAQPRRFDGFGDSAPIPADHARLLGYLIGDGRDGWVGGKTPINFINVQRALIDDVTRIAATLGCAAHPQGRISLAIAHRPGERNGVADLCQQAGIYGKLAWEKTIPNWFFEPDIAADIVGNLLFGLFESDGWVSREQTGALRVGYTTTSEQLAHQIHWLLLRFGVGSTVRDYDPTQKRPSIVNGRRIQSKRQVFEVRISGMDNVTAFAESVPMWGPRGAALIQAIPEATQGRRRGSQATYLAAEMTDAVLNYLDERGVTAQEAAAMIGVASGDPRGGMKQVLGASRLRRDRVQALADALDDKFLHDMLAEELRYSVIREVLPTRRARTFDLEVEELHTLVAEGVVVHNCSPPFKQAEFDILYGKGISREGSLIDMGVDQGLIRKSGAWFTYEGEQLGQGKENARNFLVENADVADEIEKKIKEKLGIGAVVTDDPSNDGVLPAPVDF

[2] = target: T2, Replicative DNA helicase DnaB (Mycobacterium tuberculosis, UniProt P9WMR3); experiment: DnaB intein splicing inhibitors, dose response, biochemical, cell-free fluorescence (AID 449749); format: functional
T2 sequence (P9WMR3 whole entry): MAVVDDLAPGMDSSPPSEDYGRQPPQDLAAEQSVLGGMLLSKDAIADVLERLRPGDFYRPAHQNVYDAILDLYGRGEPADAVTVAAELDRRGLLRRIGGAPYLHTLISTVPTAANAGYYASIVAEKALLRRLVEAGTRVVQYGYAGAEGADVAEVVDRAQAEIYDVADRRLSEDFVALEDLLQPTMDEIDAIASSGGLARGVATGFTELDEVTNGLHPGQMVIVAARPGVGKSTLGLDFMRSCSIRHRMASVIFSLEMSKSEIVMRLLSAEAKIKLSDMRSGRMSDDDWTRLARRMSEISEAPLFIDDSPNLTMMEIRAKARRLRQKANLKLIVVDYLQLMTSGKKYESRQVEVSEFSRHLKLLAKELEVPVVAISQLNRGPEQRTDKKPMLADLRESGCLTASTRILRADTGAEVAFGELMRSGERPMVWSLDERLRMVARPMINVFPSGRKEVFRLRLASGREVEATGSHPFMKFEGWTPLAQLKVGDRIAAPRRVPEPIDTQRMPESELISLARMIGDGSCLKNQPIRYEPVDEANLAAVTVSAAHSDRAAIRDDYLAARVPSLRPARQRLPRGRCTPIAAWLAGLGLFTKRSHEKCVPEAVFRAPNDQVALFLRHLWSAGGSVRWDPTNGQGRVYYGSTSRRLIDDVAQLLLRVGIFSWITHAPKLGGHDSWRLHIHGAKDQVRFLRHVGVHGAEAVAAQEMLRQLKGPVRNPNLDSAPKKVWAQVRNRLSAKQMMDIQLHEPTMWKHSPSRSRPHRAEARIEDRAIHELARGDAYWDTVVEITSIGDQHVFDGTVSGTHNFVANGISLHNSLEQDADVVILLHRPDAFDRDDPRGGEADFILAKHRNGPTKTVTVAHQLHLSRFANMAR

[3] = target: Large T antigen (Simian virus 40, UniProt P03070); format: functional, Betapolyomavirus macacae;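 further: Confirmatory-stage PubChem screen for compounds that inhibit SV40 T antigen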
[4] = target: T3, Rac GTPase-activating protein 1 (Homo sapiens, UniProt Q9H0H5); experiment: MgcRacGAP GTPase-activating activity inhibitors, confirmation, biochemical, ADP Hunter fluorescence, primary and confirmatory (AID 624330); format: functional
T3 sequence (Q9H0H5 whole entry): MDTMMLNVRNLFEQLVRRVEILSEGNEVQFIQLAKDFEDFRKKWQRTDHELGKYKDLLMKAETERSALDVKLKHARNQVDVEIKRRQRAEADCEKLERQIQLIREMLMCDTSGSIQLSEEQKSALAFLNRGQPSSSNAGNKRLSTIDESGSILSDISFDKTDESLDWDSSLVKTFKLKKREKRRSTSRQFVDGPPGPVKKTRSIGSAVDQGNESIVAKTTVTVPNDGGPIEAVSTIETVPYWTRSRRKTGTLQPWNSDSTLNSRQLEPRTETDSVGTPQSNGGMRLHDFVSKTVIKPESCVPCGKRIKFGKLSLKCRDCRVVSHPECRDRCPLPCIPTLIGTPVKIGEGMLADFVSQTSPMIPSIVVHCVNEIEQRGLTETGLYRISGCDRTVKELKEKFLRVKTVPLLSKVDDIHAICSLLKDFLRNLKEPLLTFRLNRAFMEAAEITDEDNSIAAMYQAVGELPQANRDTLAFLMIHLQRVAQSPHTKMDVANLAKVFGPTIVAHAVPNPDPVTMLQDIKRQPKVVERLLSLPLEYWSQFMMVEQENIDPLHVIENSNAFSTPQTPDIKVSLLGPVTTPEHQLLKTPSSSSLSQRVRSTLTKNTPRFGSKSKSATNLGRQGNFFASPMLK

[5] = target: T4, Corticotropin-releasing factor receptor 2/Corticotropin-releasing factor-binding protein (Homo sapiens, UniProt P24387+Q13324); experiment: activators of CRF receptor 2 with binding protein – uHTS hits, confirmation (AID 602473); format: functional; settings: read-out: EC50_Mean
T4 sequence (Q13324 whole entry): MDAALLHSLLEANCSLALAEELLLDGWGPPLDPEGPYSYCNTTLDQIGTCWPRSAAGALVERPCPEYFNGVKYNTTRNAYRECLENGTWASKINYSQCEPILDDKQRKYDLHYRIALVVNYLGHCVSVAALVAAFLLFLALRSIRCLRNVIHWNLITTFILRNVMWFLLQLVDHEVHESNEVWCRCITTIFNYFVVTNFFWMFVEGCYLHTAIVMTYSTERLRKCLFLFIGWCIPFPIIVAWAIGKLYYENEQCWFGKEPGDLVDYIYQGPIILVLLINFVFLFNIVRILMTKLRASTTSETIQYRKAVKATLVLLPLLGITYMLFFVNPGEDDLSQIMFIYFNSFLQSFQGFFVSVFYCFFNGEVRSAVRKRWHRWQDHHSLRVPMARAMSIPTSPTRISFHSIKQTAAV
T4 sequence (P24387 whole entry): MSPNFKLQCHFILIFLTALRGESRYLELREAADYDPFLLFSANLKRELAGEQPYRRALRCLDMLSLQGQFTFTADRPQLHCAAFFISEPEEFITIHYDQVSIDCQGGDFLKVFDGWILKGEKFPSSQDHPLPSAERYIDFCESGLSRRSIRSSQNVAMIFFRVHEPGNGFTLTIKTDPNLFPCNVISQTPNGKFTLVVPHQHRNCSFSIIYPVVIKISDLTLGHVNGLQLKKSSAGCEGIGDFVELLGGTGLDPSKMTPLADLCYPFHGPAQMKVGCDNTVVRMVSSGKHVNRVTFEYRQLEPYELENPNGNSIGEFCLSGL

[6] = target: T4, Corticotropin-releasing factor receptor 2/Corticotropin-releasing factor-binding protein; experiment: Dose Response confirmation of uHTS hits for small molecule antagonists of the CRF-binding protein and CRF-R2 receptor complex.; format: functional; settings: read-out: IC50_Mean
[7] = Luminescence Cell-Based Dose Response HTS to Identify Activators of Luciferase Translation or Activity in H4 […] Cells. [Related pubchem assays: 1829 (Project Summary), 1814 (Primary HTS)]; format: functional
[8] = Luminescence Cell-Based Dose Confirmation HTS to Identify Activators of 5'UTR Stem-Loop Driven Alpha-Synuclein mRNA Translation in H4 Neuroglioblastoma Cells. [Related pubchem assays: 1829 (Project Summary), 1814 (Primary HTS)]; format: functional
[9] = target: FAD-linked sulfhydryl oxidase ALR (Homo sapiens, UniProt P55789); experiment: inhibitors of human ALR sulfhydryl oxidase, dose response, biochemical, H2O2 detection, luminescence, cherry-pick (AID 493248)
[10] = tested on: H4; experiment: Luminescence Cell-Based Dose Response HTS to Identify Activators of 5'UTR Stem-Loop Driven Prion Protein mRNA Translation in H4 Neuroglioblastoma Cells. [Related pubchem assays: 1829 (Project Summary), 1814 (Primary HTS)]; format: functional; settings: Homo sapiens
[11] = target: T5, Streptokinase A (Streptococcus pyogenes serotype M1, UniProt P10520); experiment: S. pyogenes streptokinase expression inhibitors, potency, dose response, plasminogen activation absorbance, OD405 (AID 1914); format: functional, Streptococcus pyogenes M1 GAS;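 further: secreted streptokinase activity via plasminogen activation per viability signal from cell pellet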
T5 sequence (P10520 whole entry): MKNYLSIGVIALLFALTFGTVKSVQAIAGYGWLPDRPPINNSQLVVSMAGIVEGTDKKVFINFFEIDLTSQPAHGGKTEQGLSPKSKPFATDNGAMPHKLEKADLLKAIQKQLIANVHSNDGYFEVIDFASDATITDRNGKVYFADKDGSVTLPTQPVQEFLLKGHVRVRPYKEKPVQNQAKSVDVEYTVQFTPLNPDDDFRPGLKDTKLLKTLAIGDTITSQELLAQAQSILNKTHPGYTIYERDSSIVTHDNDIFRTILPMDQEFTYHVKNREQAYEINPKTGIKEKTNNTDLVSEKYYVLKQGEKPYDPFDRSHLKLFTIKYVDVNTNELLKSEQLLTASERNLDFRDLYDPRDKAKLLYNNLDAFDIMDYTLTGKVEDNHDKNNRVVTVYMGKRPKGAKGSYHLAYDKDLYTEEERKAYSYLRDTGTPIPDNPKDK

[12] = tested on: Streptococcus sp. 'group A'; experiment: growth inhibition of control SK(-) GAS strain, dose response, counter-screen for streptokinase expression inhibitor project, luminescence, kanamycin, BacTiterGlo, confirmation (AID 1900); format: functional, organism-based
[13] = tested on: Streptococcus; experiment: Group A Streptococcus viability loss, dose response, counter-screen for streptokinase expression inhibitor project, luminescence, BacTiterGlo (AID 1915); format: functional, organism-based;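 further: potency for reduction of bacterial viability or growth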
[14] = target: Paired box protein Pax-8 (Homo sapiens, UniProt Q06710); experiment: inhibitors of PAX8-driven TPO luciferase reporter, dose response, RMG-I cells, cherry-pick (AID 687027); format: functional, cell-based;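 further: luciferase reporter driven by Pax8 target thyroperoxidase promoter measured by SteadyGlo luminescence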
[15] = target: Cytochrome P450 2D6 (Homo sapiens, UniProt P10635);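 further: CYP2D6 member of a cytochrome P450 panel assay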
[16] = Luminescence Cell-Based Dose Response HTS to Identify Inhibitors of 5'UTR Stem-Loop Driven Prion Protein mRNA Translation in H4 Neuroglioblastoma Cells. [Related pubchem assays: 1827 (Project Summary), 1813 (Primary HTS)]; format: functional
[17] = inhibitors of SNCA 5'UTR-driven reporter translation, confirmation, H4 neuroglioma cells, luminescence (AID 1988); format: functional, cell-based

Large T antigen, sequence (P03070 whole entry): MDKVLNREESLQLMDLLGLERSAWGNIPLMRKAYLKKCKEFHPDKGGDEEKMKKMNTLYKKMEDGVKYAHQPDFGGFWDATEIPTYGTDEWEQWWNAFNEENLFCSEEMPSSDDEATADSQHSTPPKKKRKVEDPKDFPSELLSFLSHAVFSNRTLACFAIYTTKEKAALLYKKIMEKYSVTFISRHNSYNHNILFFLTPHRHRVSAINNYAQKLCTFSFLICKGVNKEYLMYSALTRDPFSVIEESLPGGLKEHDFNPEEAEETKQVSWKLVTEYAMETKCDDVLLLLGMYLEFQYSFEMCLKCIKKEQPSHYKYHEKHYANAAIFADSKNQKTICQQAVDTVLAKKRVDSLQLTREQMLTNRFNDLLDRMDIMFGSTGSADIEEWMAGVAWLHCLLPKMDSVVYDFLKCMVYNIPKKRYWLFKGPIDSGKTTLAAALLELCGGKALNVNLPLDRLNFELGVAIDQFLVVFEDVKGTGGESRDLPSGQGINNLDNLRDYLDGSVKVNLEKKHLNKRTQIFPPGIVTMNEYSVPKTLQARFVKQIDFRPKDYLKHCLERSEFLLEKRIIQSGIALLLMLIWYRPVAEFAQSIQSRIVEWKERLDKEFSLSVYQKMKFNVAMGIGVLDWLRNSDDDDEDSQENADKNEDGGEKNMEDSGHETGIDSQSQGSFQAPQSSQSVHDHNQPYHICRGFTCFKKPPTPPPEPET
Paired box protein Pax-8, sequence (Q06710 whole entry): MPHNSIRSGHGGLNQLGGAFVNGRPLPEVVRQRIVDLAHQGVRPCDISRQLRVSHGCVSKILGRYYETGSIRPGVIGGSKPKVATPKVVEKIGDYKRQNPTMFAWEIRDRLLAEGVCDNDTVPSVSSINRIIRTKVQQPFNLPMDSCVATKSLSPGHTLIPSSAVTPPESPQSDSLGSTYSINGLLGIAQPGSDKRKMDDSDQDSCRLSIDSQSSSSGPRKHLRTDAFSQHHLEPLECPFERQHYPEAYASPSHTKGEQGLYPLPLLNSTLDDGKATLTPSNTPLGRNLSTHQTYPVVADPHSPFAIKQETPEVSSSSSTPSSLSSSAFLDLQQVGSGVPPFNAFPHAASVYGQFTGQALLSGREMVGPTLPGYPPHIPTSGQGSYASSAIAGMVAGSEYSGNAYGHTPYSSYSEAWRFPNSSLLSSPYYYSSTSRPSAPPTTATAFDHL
Cytochrome P450 2D6, sequence (P10635 whole entry): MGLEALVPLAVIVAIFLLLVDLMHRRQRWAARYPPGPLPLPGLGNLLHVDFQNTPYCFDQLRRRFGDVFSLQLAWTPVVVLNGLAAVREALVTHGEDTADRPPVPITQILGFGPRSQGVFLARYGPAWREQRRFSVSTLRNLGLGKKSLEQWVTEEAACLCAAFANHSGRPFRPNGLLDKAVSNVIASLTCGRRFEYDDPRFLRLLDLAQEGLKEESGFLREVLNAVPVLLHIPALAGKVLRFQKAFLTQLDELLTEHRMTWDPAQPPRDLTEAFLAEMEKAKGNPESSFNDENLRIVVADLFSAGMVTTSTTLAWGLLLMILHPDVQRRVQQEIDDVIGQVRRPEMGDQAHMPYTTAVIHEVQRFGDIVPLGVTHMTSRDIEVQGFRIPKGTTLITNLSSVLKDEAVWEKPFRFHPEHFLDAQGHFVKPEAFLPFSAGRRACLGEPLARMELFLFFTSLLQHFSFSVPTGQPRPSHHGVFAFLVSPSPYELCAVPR
FAD-linked sulfhydryl oxidase ALR, sequence (P55789 whole entry): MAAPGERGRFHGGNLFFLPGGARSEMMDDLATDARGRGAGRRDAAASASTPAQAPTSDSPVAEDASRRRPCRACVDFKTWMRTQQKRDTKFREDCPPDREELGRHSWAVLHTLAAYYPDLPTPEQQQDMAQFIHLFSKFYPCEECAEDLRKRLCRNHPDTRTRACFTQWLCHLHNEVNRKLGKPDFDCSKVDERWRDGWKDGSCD

Row | Structure (SMILES) | IC50 [3] | EC50 [5] | IC50 [6] | other results
1 | CCOc1cc(C(c2c(C)n[nH]c2O)c2c(C)n[nH]c2O)ccc1OC(=O)c1cccc([N+](=O)[O-])c1 | > 100 µM (active) |  |  | EC50 [1]: 0.205 µM (active); AC50 [2]: 0.365 µM (active)
2 | CN1C(=O)NC(c2ccc(O)cc2)C2=C1CN(c1ccc(O)cc1)C2=O (stereo not given) | 8.64 µM (active) |  |  | IC50 [4]: 34.6 µM (active)
3 | Cc1cc(SCC(=O)Nc2cccc(S(N)(=O)=O)c2)c(C)cc1Br |  | > 53 µM (inactive) | > 47.1 µM (inactive) | 
4 | O=C(NC(=S)N1CCN(c2ccc(O)cc2)CC1)c1cccs1 | 5.39 µM (active) |  |  | 
5 | CCOC(=O)C1=C(O)/C(=C\c2ccc(O)c(OCC)c2)N=C1C | 9.94 µM (active) |  |  | IC50 [4]: 43.3 µM (active)
6 | COc1cc(C#CC#CCN2CCCCC2)ccc1O | 10.3 µM (active) |  |  | EC50 [7]: 6.95 µM (active); EC50 [8]: 6.87 µM (active); AC50 [9]: 3.57 µM (active); EC50 [10]: > 120 µM (not active)
7 | Nc1nc(-c2ccc3c(c2)OCCO3)cs1 |  | > 53 µM (inactive) | > 47.1 µM (inactive) | 
8 | COc1ccc(NC(=O)CN2CCC3(O)CCCCC3C2c2cc(OC)ccc2OC)cc1 (stereo not given) |  | > 53 µM (inactive) | > 47.1 µM (inactive) | 
9 | Nc1ccc(NC(=O)NC2CCCCC2)cc1 | 10.5 µM (active) |  |  | 
10 | CC(C)CNC(=O)CN1c2cccc3cccc(c23)S1(=O)=O |  | > 53 µM (inactive) | > 47.1 µM (inactive) | 
11 | CC(=O)Nc1ccc(S(=O)(=O)Nc2nc3ccccc3nc2Nc2ccc(N)cc2)cc1 | 18.5 µM (active) |  |  | 
12 | CCCN1CCc2c(sc(NC(=O)c3ccc(S(=O)(=O)N4CCN(C(=O)OCC)CC4)cc3)c2C(N)=O)C1 |  | 15.2 µM (active) |  | EC50 [11]: > 150 µM (not active); EC50 [12]: 51.8 µM (active); EC50 [13]: > 150 µM (not active)
13 | CCCC1=Nc2nc(C)nn2C(c2cccnc2)/C1=C(\O)OCC (stereo not given) |  | > 53 µM (inactive) | > 47.1 µM (inactive) | 
14 | CCOC(=O)C1(C(=O)OCC)CCN(S(=O)(=O)c2ccccc2)CC1 |  | > 53 µM (inactive) | > 47.1 µM (inactive) | 
15 | Cc1ccc(S(=O)(=O)NN=Cc2c(O)ccc3ccccc23)cc1 |  | > 53 µM (inactive) | > 47.1 µM (inactive) | 
16 | COc1ccccc1S(=O)(=O)N(C)C[C@@H]1Oc2cc(C#CCC3CCCC3)ccc2S(=O)(=O)N([C@@H](C)CO)C[C@@H]1C |  |  |  | AC50 [14]: 6.16 µM (active)
17 | N#C/C(=C\c1ccc(O)c(O)c1)C(=O)NCCc1ccccc1 | 7.1 µM (active) |  |  | AC50 [15]: 39.8 µM (inconclusive)
18 | O=C(O)c1cccc(N/N=C/c2cccc3ccccc23)c1 |  |  |  | EC50 [16]: 4.51 µM (active); EC50 [17]: 1.5 µM (active)
19 | CCn1c(SCC(=O)N/N=C/c2ccc(O)c(OC)c2)nc2ccccc21 | 20.4 µM (active) |  |  | 
20 | CCOc1ccc(/C=N/NC(=O)CSc2ccccn2)cc1O | 17.7 µM (active) |  |  | 

Source: ChEMBL document CHEMBL1201862, “PubChem BioAssay data set” (2004)
